“Also recorded” adds a separate entry of the source.
How the values were obtained:
[1] = system: panel of 60 human cancer cell lines; settings: Williamson et al., 2002; cited from earlier work
brine shrimp = settings: cited from earlier work
[2] = system: HCT 116 human colon carcinoma cells; test: Cytotoxicity on monolayer (2D) cells; assay type: cell-based; settings: 2D assay (monolayer)
Method: The cytotoxic effect of phormidolide D (3) was tested against HCT 116 human colon carcinoma cells in monolayer (2D) and spheroid models (Figure 11). […] The difference of the IC50 values between the two cell models is commonly reported in the literature. Cancer spheroids tend to be more resistant to treatment than monolayer cells, and thus tend to present higher IC50 values. However, the cytotoxic effects in cancer spheroids are more realistic, because in this culture model, drug diffusion and cell proliferation effects are being tested. The results obtained for compound 3 are very interesting: despite its molecular weight (1064 g/mol) it can still penetrate the tightly packed cells of the outer layer of the spheroid, leading to a decrease in the cell viability in relevant concentrations (Figure 9). […]

[3] = system: human colorectal carcinoma cell line, HCT 116; test: Cytotoxicity on 3D cancer spheroids, cell viability by acid phosphatase assay; assay type: cell-based
Method: The cytotoxicity of the fractions A to H2 was tested against the 3D model of the human colorectal carcinoma cell line, HCT 116. Colorectal cancer has one of the highest incidences among cancer diagnosis and is also one of cancers with the highest mortality rate. Over the years, the 3D cell models have taken over drug screening due to their biologically relevance when compared to the more conventional monolayer model. Three dimensional spheroids are more representative of the microenvironment of an in vivo tumour, with interactions between cells in the different layers - a necrotic core, an intermediate quiescent layer, and a proliferative outer layer.
Cells were seeded in ULA 96 well plates and incubated for 5 days for spheroid formation. After formation, spheroids were exposed to the fractions (25 µg/mL) for 96h. Cell viability was assessed by the acid phosphatase assay. In viable cells these intracellular enzymes hydrolyse […], which can be quantified colorimetrically at 405 nm. The results were expressed as the percentage of cell viability normalized to the solvent control (DMSO). […]

Substance	cytotoxicity against a panel of 60 cancer cells [1]	LD50 (brine shrimp) [µM]	IC50 [2] [µM]	IC50 [3] [µM]
phormidolide A	noncytotoxic; also recorded: not considered active	1.5	–	–
phormidolide D	–	–	1.21	13.6

— patent EP4233857A1, “BIOACTIVE COMPOUNDS OBTAINED FROM CY[…] SP. LEGE 181152” (CIIMAR - Centro Interdisciplinar de Investigação Marinha e …, priority 2022, dated 2023)
